In patent publication US20020022052A1, “Transdermal delivery system” (priority 2000, published 2002):

Experiments:
[1] = Maximum achieved massage induced skin load (400 g vibrator, 10 minutes); details: particle size 1 micron ± 0.25 um
From the text: To counter this problem, Franz Diffusion Cells using the widely accepted Perfused Bovine Udder Skin model were fitted with vibrators which held a soft plastic head against the test skin in a massaging action. The vibrator was allowed to move randomly over the test sample using its own mass to provide the pressure. The total weight of a vibrator and head was 180 grams and the massage heads were 1.2 cm in diameter. The vibrators provided a massage pressure well below that which would be applied by a person finger massaging cream into the skin.
Testing was done by preparing sample creams as discussed below. Each sample was weighed and spread on the test skin. At this point the sample was subject to five minutes of the massage action described and then the remaining cream was removed and skin surface wiped dry. The weight of the absorbed amount was determined by weighing the removed material. The cell was not capped, the skin being left exposed to the air.
Tests were carried out to determine the maximum of both admixture and dry powder that could be induced into the stratum corneum. The vibrator weight was increased to 400 grams and vibration time to 10 minutes. Zinc gluconate (being of particular interest) was used as the active for these tests.

[2] = Skin tolerability trials of ascorbic acid admixtures; details: water free carriers, ascorbic acid levels as high as 35%
From the text: In addition, acidity is a function of the ionic dissociation of a material in solution. In most circumstances water is the primary dissociation medium and so solutions free of water generally have lower acidity. […] While it is impossible to totally exclude water, as there are minute traces in the ingredients utilized as carriers, acidity is kept to a minimum in what are essentially water free admixtures.

[3] = ascorbic acid content above 14% by weight, water based; cited from earlier work
[4] = bovine
Protocol: All final tests were carried out with HPLC analysis.

Row | Molecule | Maximum loading ([1]; carrier Eutanol G) | Maximum loading ([1]; carrier Nil (dry powder)) | subjective discomfort compared with 12% water based admixture [2] | tolerability [2] | skin reactions [3] | particle size at which absorption began to be demonstrated [4]
1 | zinc gluconate | 1.2 micrograms/cm^2 | 0.6 micrograms/cm^2 | – | – | – | –
2 | O=C1O[C@H]([C@@H](O)CO)C(O)=C1O [ascorbic acid] | – | – | less discomfort | well tolerated | burning, stinging and other skin reactions | below 7 microns
